According to paper PMC8044163, “Vitamin D and lumisterol derivatives can act on liver X receptors (LXRs)” (Scientific Reports, 2021):
Like-named read-outs stand apart in the source and are kept apart here.

Assays:
genes downstream of LXR = assay: qPCR of genes downstream of LXR in murine dermal fibroblasts; format: cell-based, mouse; conditions: 10^–7 M, 24 h
Procedure: All animal studies followed guidelines outlined by the NIH Guide for the Care and Use of Laboratory Animals and protocols were approved by the Institutional Animal Care and Use Committee at the NIEHS or the UAB. The study was carried out in compliance with the ARRIVE guidelines (http://www.nc3rs.org.uk/page.asp?id=1357). Skin samples from newborn C57BL/6 mice were collected at the NIEHS. Dermal fibroblasts were isolated from the skin of newborn mice, 1–2 day old. Briefly, we followed the protocols described previously. The skin was washed in PBS, cut into smaller pieces and incubated in 2.4 U/ml of dispase II (Roche) overnight at 4 °C. The dermis was separated from the epidermis and incubated in 0.1% collagenase (Roche) at 4 °C overnight. Next day, it was cut into smaller pieces and incubated for 1 h in 0.25% Trypsin (CellGrow) at 37 °C. Single cell suspension was prepared by pipetting and draining through a cell strainer. After centrifugation, cell pellets were suspended in DMEM medium containing 10% charcoal-stripped fetal bovine serum (cFBS), mouse fibroblasts growth factor (FGF) and 1% antibiotic, and inoculated into tissue culture dishes (Midwest Scientific, TPP). Cells, in early passages, from different mice were pooled together to provide representative samples for experiments. Fibroblasts were cultured in Petri dishes (10 cm in diameter) in DMEM and 10% cFBS and triplicate semi-confluent cultures were treated as described.
RNA isolated from either fibroblasts, HaCaT cells or brain was submitted for cDNA synthesis (High Capacity cDNA Reverse Transcription Kit with RNase Inhibitor, Applied Biosystems) following the manufacturers’ protocols. RT-PCR was carried out using Cyber green, in triplicates; as previously described. Approximately, 750 ng of cDNA was used for PCR reactions. GAPDH and CIC-B were used as internal controls. Primer sequences are listed in Supplementary Table 27. Data were analyzed using GraphPad Prism statistical software one way ANOVA or t-test, where appropriate; *p < 0.05; **p < 0.01; ***p < 0.001.

LBD of LXRβ = target: T1, LBD of LXRβ (Homo sapiens, UniProt P55055); assay: LanthaScreen TR-FRET LXRβ coactivator assay (LXR binding assay); format: biochemical
T1 construct: purchased Thermo Fisher Scientific
T1 sequence (P55055 222-460 limits assumed): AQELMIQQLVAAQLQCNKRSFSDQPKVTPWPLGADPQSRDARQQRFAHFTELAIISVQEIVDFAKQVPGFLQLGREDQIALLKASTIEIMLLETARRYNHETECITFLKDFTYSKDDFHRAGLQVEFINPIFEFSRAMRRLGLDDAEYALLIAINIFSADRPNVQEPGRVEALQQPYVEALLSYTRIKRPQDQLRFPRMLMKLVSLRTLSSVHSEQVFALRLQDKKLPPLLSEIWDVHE
Procedure: (§1) Binding assays of graded concentrations of vitamin D3 or lumisterol hydroxyderivatives to LXRα/β were performed using the LanthaScreen TR-FRET LXRα/β Coactivator kit (Thermo Fisher Scientific, Inc., Waltham, MA) following the manufacture’s protocol. Briefly, after addition of LXRα/β-LBD to the derivatives, a mixture of peptide (Fluorescein-TRAP220/DRIP-2 for LXRα or Fluorescein-D22 for LXRβ) and antibody (Tb-anti-GST) was added to the reaction followed by incubation in room temperature for 2 h. TR-FRET ratio was calculated by dividing the emission at 520 nm by the emission at 495 nm using Synergy neo2 (BioTek, Winooski, VT).

LBD of LXRα = target: T2, LBD of LXRα (Homo sapiens, UniProt Q13133); assay: LanthaScreen TR-FRET LXRα coactivator assay (LXR binding assay); format: biochemical
T2 construct: after addition of LXRα/β-LBD to the derivatives; purchased Thermo Fisher Scientific
T2 sequence (Q13133 209-447 limits assumed): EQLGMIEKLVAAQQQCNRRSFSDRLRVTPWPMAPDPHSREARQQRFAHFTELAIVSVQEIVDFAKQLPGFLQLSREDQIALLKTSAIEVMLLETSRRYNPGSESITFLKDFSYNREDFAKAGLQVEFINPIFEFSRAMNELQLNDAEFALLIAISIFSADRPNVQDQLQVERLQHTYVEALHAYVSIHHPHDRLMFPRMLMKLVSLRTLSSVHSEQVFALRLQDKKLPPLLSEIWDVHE
Procedure: as §1

[1] = agonist, average values, read-out: LXRβ EC50
[2] = agonist, average values, read-out: LXRα EC50

Structure (SMILES)	EC50 (LBD of LXRβ; [1])	EC50 (LBD of LXRα; [2])	other results
CC(C)CCC[C@](C)(O)[C@H]1CC[C@H]2C3=CC=C4C[C@@H](O)CC[C@]4(C)[C@H]3CC[C@@]21C [20(OH)7DHC, reference compound]			Abcg5 expression (genes downstream of LXR): stimulated; Abcg8 expression (genes downstream of LXR): inhibited; ApoE (apolipoprotein E) expression (genes downstream of LXR): inhibited; Cyp7a1 expression (genes downstream of LXR): inhibited; Fas (fatty acid synthase) expression (genes downstream of LXR): stimulated
C=C1CC[C@H](O)C/C1=C/C=C1\CCC[C@@]2(C)[C@H]1CC[C@@H]2[C@@](C)(O)CCCC(C)(C)O [20,25(OH)2D3]	2100 nM	350 nM	
CC(CC[C@H](O)C(C)C)[C@H]1CC[C@H]2C3=CC=C4C[C@@H](O)CCC4(C)[C@@H]3CC[C@]12C (stereo partly drawn) [24(OH)L3]	1300 nM	3600 nM	
C[C@@H](CO)CCC[C@@H](C)[C@H]1CC[C@H]2C3=CC=C4C[C@@H](O)CC[C@@]4(C)[C@@H]3CC[C@]12C [(25R)-27(OH)L3]	550 nM	820 nM	
C[C@H](CO)CCC[C@@H](C)[C@H]1CC[C@H]2C3=CC=C4C[C@@H](O)CC[C@@]4(C)[C@@H]3CC[C@]12C [(25S)-27(OH)L3]	1.3 nM	26 nM	
C=C1CC[C@H](O)C/C1=C/C=C1\CCC[C@]2(C)[C@@H]([C@H](C)CCCC(C)C)CC[C@@H]12 [D3, Vitamin D3, reference compound]			EC50 (LBD of LXRβ): 890 nM; EC50 (LBD of LXRα): 760 nM

The next lines start with results.

EC50 (LBD of LXRβ; [1])	EC50 (LBD of LXRα; [2])	Structure (SMILES)	other results
14000 nM	640 nM	CC(C)CCC(O)[C@@H](C)[C@H]1CC[C@H]2C3=CC=C4C[C@@H](O)CC[C@@]4(C)[C@@H]3CC[C@]12C (stereo partly drawn) [22(OH)L3]	
1900 nM	140 nM	CC(CCCC(C)(C)O)[C@H]1CC[C@H]2C3=CC=C4C[C@@H](O)CC[C@@]4(C)[C@@H]3CC[C@]12C (stereo partly drawn) [25(OH)L3]	
110 nM	250 nM	CC(C)CCC[C@@H](C)[C@H]1CC[C@H]2C3=CC=C4C[C@@H](O)CC[C@@]4(C)[C@@H]3CC[C@]12C [L3, lumisterol]	
